Values quoted from earlier work in patent US20040202731A1, “Rosmarinic acid composition” (priority 2003, published 2004).

Assays:
rat liver microsomes = conditions: concentration of 25 μg/ml
human PMNL = conditions: concentrations of 10^-5 to 10^-3 M
[1] = in vivo

| stability (turns to camphor with oxidation) | inhibition of lipid peroxidation of rat liver microsomes (rat liver microsomes) [%] | absorption from the gastrointestinal tract and from the skin [1] | Compound | endotoxin-induced activation of complement and concomitant formation of prostacyclin (complement) | formation of 5-HETE from human PMNL (human PMNL) | formation of LTB4 from human PMNL (human PMNL) |
| --- | --- | --- | --- | --- | --- | --- |
| highly unstable |  |  | CC1(C)C2CCC1(C)C(O)C2 (stereo not drawn) [Borneol, endo-1,7,7-trimethyl-bicyclo[2.2.1]heptan-2-ol] |  |  |  |
|  | 90 | well absorbed | O=C(/C=C/c1ccc(O)c(O)c1)O[C@H](Cc1ccc(O)c(O)c1)C(=O)O [Rosmarinic acid] | suppresses | inhibited | inhibited |
